The text below walks through data of ChEMBL document CHEMBL4321863, “Exploring Structural Determinants of Inhibitor Affinity and Selectivity in Complexes with Histone Deacetylase 6” (J Med Chem, 2020).

In general, IC50 refers to the point on the concentration scale where inhibition reaches its midpoint.

Each structure is given as a SMILES string. Non-standard residues stand in square brackets, D forms with d. Residues, ends and D or L forms follow the SMILES beside them. *: point of attachment. 3Amb = NCc1cccc(C(=O)O)c1; 4Amb = NCc1ccc(C(=O)O)cc1; Cbz = O=C(OCc1ccccc1)*; NHOH = ON*

For test [1], the target named is T1, Protein deacetylase HDAC6 (Homo sapiens, UniProt Q9UBN7).
T1 sequence (Q9UBN7 whole entry): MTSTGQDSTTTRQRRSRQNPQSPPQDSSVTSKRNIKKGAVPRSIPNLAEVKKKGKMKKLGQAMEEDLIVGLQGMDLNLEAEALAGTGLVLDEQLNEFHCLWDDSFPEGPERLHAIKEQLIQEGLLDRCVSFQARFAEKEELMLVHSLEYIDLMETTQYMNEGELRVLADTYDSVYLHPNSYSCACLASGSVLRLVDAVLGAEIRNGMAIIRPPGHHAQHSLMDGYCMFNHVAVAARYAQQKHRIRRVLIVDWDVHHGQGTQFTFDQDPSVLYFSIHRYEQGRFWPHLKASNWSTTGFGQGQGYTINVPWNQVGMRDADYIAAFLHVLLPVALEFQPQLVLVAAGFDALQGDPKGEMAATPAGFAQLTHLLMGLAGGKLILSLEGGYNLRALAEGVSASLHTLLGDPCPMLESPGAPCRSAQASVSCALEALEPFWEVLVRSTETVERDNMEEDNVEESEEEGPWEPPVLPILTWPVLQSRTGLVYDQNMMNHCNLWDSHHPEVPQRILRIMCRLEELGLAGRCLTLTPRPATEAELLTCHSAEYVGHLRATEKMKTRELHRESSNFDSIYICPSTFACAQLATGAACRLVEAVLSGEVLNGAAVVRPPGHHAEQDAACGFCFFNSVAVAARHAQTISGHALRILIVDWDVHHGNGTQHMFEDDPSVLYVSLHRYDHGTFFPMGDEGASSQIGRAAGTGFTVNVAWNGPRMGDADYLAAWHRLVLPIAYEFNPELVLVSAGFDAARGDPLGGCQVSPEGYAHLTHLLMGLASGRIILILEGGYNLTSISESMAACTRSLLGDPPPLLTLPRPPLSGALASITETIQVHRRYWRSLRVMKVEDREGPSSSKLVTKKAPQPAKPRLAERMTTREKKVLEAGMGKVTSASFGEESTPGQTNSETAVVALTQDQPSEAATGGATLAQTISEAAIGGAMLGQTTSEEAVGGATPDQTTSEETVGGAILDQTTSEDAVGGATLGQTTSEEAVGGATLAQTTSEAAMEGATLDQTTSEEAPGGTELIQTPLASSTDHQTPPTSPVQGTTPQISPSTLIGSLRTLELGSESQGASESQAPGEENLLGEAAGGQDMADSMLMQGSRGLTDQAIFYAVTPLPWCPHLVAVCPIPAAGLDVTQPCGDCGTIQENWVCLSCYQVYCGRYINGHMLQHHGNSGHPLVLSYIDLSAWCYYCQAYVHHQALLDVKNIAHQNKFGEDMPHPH
In words: Inhibition of human N-terminal GST-tagged HDAC6 expressed in baculovirus infected insect cells using RHKKAc as substrate.

For test [2], the target named is T1, Protein deacetylase HDAC6. Kind of test: Inhibition of HDAC6 CD2 domain (unknown origin).
Test [3] deals with T1, Protein deacetylase HDAC6. In words: Inhibition of recombinant C-terminal FLAG-tagged HDAC6 (unknown origin) using Ac-NH-GGK(Ac)-AMC as substrate measured after 180 mins by fluorescence assay.

In test [1], `O=C(NO)c1ccc(CNC(=O)c2cccnc2C(F)(F)F)cc1` came in with an IC50 of 17 nM. With `CC1(C)[C@@H]2CC[C@@H](CNCc3ccc(C(=O)NO)cc3)[C@H]1C2`, the concentration for half-maximal inhibition (IC50) in test [2] stood at 149 nM. Still for that read-out and setting: next, `O=C(CNC(=O)CNC(=O)OCc1ccccc1)NCc1ccc(C(=O)NO)cc1` (Cbz-Gly-Gly-[4Amb]-{NHOH}): 335 nM; `CC(C)C[C@H](NC(=O)OCc1ccccc1)C(=O)N[C@@H](C)C(=O)NCc1cccc(C(=O)NO)c1` (Cbz-Leu-Ala-[3Amb]-{NHOH}): 8420 nM. Consider `CC(C)C[C@H](NC(=O)OCc1ccccc1)C(=O)N[C@@H](C)C(=O)NCc1ccc(C(=O)NO)cc1` (Cbz-Leu-Ala-[4Amb]-{NHOH}), for which half-maximal inhibition in test [1] (IC50) required 314 nM.

For the molecule `CN(C)Cc1ccc(S(=O)(=O)n2ccc(/C=C/C(=O)NO)c2)cc1` [RESMINOSTAT], the IC50 in test [3] came out at 72 nM.
